# Tested on: piglet or ferret tracheal rings
# Experiment: Airway narrowing: lumen area of thin sliced tracheal rings, carbachol
# Design: species or system pig; ferret
# Conditions: 0.3 mM carbachol alone
# Description: FIG. 2. Elevating cAMP by adenylate cyclase activation inhibited muscle tension and airway narrowing to carbachol. (A, B) To measure muscle tension, one end of an isolated WT ferret trachealis muscle bundle was secured in a Sylgard-lined Petri dish filled with KRB solution and the other end was attached by 26-gauge wire to a previously calibrated strain gauge. […] (red closed circles). Averaged responses at 10 min intervals are shown for: (C) WT piglet tracheas (n=3-7) with forskolin. […] (F). CF ferrets (n=2, one CFTRΔF/ΔF and one CFTRΔF/G551D). […] Used alone they have opposite effects: Ca^2+-elevating agonists contract muscles whereas cAMP-elevating agonists relax them. For therapeutic use, the potential for producing unwanted bronchoconstriction with the combined agonists is a safety concern. […] Tension of ferret trachealis muscle bundles was measured to increasing carbachol concentrations±[…] forskolin. […] Importantly, the protective effect was also observed in CF ferrets (FIG. 2F). Airway smooth muscle contraction measurement. Two methods were used to measure tracheal smooth muscle contraction. One is designed to measure airway narrowing using thin sliced tracheal rings. Piglet or ferret tracheal ring preparations of ˜2 mm were submerged and securely pinned on a Sylgard-lined Petri dish filled with KRB solution at 37° C. and pH 7.4. […] The other method is using a force transducer. […]
compound,measurement,value
C[N+](C)(C)CCOC(N)=O [carbachol],sustained reduction of lumen area,20-40%
